# Measurements from patent US9169254B2, “Spiroimidazolone derivative” (Chugai Seiyaku Kabushiki Kaisha, priority 2009, dated 2015).
# Target: T1, human PTH1 receptor (Homo sapiens, UniProt Q03431)
# T1 sequence (Q03431 27-593): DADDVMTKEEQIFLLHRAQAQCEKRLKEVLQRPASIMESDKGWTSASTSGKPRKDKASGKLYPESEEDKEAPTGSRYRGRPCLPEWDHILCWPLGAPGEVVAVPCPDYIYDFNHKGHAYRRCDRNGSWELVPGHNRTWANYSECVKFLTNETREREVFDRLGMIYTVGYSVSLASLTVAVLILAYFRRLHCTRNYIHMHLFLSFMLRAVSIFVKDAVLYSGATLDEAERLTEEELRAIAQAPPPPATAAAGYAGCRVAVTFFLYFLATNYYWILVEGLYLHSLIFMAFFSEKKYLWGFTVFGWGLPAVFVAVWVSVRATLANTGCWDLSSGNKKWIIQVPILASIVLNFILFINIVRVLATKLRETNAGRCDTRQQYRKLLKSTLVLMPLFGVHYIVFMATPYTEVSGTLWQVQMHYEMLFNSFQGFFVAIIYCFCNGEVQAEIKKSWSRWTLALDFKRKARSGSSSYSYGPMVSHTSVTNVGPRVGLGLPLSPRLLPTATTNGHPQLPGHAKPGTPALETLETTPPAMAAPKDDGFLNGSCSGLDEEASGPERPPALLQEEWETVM
# Test: In vitro cAMP signal activity in HKRK-B7 cells (LLC-PK1 cells overexpressing the human PTH1 receptor)
# Assay type: cell-based
# Settings: HKRK-B7 cells; compound at 1×10^−3 M; […]; 0.1 µM
row,SMILES,cAMP production activity (%)
1,"O=C(Cn1ccc2c(/C=C/S(=O)(=O)N3CCC4(CC3)N=C(C3CCCCC3)NC4=O)cccc21)Nc1ccncc1 [Compound 736, 2-{4-[(E)-2-(2-Cyclohexyl-4-oxo-1,3,8-triaza-spiro[4.5]dec-1-ene-8-sulfonyl)-vinyl]-indol-1-yl}-N-pyridin-4-yl-acetamide]",16%

# Same assay, conditions: HKRK-B7 cells; compound at 1×10^−3 M; cAMP produced as percentage of that produced by hPTH(1-34) at 100 nM
row,cAMP production activity (%),SMILES
1,90%,"Cc1cc(C(=O)N2CCS(=O)(=O)CC2)cc(C)c1CCS(=O)(=O)N1CCC2(CC1)N=C(C1CCC(C)CC1)NC2=O (stereo not shown) [Compound 1183, 8-{2-[4-(1,1-dioxo-1λ^6-thiomorpholine-4-carbonyl)-2,6-dimethyl-phenyl]-ethanesulfonyl}-2-(4-methyl-cyclohexyl)-1,3,8-triaza-spiro[4.5]dec-1-en-4-one]"
2,102%,"Cc1cc(N(C)C(N)=O)cc(C)c1/C=C/S(=O)(=O)N1CCC2(CC1)N=C(CCCCCCCCCCCNC(=O)OC(C)(C)C)NC2=O [Compound 1308, [11-(8-{(E)-2-[2,6-dimethyl-4-(1-methyl-ureido)-phenyl]-ethenesulfonyl}-4-oxo-1,3,8-triaza-spiro[4.5]dec-1-en-2-yl)-undecyl]-carbamic acid tert-butyl ester]"
3,88%,"CC(=O)N(CCOCCF)c1cc(C)c(CCS(=O)(=O)N2CCC3(CC2)N=C(C2CCC(CCC(F)(F)F)CC2)NC3=O)c(C)c1 (stereo not shown) [Compound 766, N-[3,5-dimethyl-4-(2-{4-oxo-2-[4-(3,3,3-trifluoro-propyl)-cyclohexyl]-1,3,8-triaza-spiro[4.5]dec-1-ene-8-sulfonyl}-ethyl)-phenyl]-N-[2-(2-fluoro-ethoxy)-ethyl]-acetamide]"
4,68%,"Cc1cc(CC(=O)N(C)C)ccc1CCS(=O)(=O)N1CCC2(CC1)N=C(C1CCC(C)CC1)NC2=O (stereo not shown) [Compound 1387, N,N-dimethyl-2-(3-methyl-4-{2-[2-(4-methyl-cyclohexyl)-4-oxo-1,3,8-triaza-spiro[4.5]dec-1-ene-8-sulfonyl]-ethyl}-phenyl)-acetamide]"
5,82%,"CCCCCCCCCC1=NC2(CCN(S(=O)(=O)CCc3ccc(N(CCO)S(C)(=O)=O)cc3C)CC2)C(=O)N1 [Compound 720, N-(2-Hydroxy-ethyl)-N-{3-methyl-4-[2-(2-nonyl-4-oxo-1,3,8-triaza-spiro[4.5]dec-1-ene-8-sulfonyl)-ethyl]-phenyl}-methanesulfonamide]"
6,98%,"Cc1cc(C2=NC3(CCN(S(=O)(=O)CCc4c(C)cc(C(=O)N5CCC(C)(O)CC5)cc4C)CC3)C(=O)N2)ccc1C(F)(F)F [Compound 1235, 8-{2-[4-(4-hydroxy-4-methyl-piperidine-1-carbonyl)-2,6-dimethyl-phenyl]-ethanesulfonyl}-2-(3-methyl-4-trifluoromethyl-phenyl)-1,3,8-triaza-spiro[4.5]dec-1-en-4-one]"
7,73%,"Cc1cc(C(=O)N2CCC(O)(CF)CC2)cc(C)c1/C=C/S(=O)(=O)N1CCC2(CC1)N=C(c1ccc(F)c(OCCCC(F)(F)C(F)(F)F)c1)NC2=O [Compound 1263, 8-{(E)-2-[4-(4-fluoromethyl-4-hydroxy-piperidine-1-carbonyl)-2,6-dimethyl-phenyl]-ethenesulfonyl}-2-[4-fluoro-3-(4,4,5,5,5-pentafluoro-pentyloxy)-phenyl]-1,3,8-triaza-spiro[4.5]dec-1-en-4-one]"
8,74%,"Cc1cc(N2C(=O)CNC2=O)ccc1CCS(=O)(=O)N1CCC2(CC1)N=C(C1CCC(CCC(F)(F)F)CC1)NC2=O (stereo not shown) [Compound 943, 3-[3-Methyl-4-(2-{4-oxo-2-[4-(3,3,3-trifluoro-propyl)-cyclohexyl]-1,3,8-triaza-spiro[4.5]dec-1-ene-8-sulfonyl}-ethyl)-phenyl]-imidazolidine-2,4-dione]"
9,113%,"Cc1cc(N(C)C(N)=O)cc(C)c1/C=C/S(=O)(=O)N1CCC2(CC1)N=C(CCCCCCCCCF)NC2=O [Compound 1325, 1-(4-{(E)-2-[2-(9-Fluoro-nonyl)-4-oxo-1,3,8-triaza-spiro[4.5]dec-1-ene-8-sulfonyl]-vinyl}-3,5-dimethyl-phenyl)-1-methyl-urea]"
10,25%,"NCc1ccc(/C=C/S(=O)(=O)N2CCC3(CC2)N=C(C2CCCCC2)NC3=O)cc1 [Compound 687, 8-[(E)-2-(4-aminomethyl-phenyl)-ethenesulfonyl]-2-cyclohexyl-1,3,8-triaza-spiro[4.5]dec-1-en-4-one]"

# The next lines start with the compound.
row,SMILES,cAMP production activity (%)
1,"O=C1NC(c2cccc(C(F)(F)F)c2)=NC12CCN(S(=O)(=O)CCc1cccc3ccccc13)CC2 [Compound 35, 8-(2-Naphthalen-1-yl-ethanesulfonyl)-2-(3-trifluoromethyl-phenyl)-1,3,8-triaza-spiro[4.5]dec-1-en-4-one]",56%
2,"Cc1cc(C(=O)N2CCN(C(C)C)CC2)ccc1CCS(=O)(=O)N1CCC2(CC1)N=C(c1cccc(C(F)(F)F)c1)NC2=O [Compound 376, 8-{2-[4-(4-isopropyl-piperazine-1-carbonyl)-2-methyl-phenyl]-ethanesulfonyl}-2-(3-trifluoromethyl-phenyl)-1,3,8-triaza-spiro[4.5]dec-1-en-4-one]",74%
3,"CN(C)C(=O)c1cccc(-c2ccc(S(=O)(=O)N3CCC4(CC3)N=C(c3cccc(C(F)(F)F)c3)NC4=O)s2)c1 [Compound 330, N,N-dimethyl-3-{5-[4-oxo-2-(3-trifluoromethyl-phenyl)-1,3,8-triaza-spiro[4.5]dec-1-ene-8-sulfonyl]-thiophen-2-yl}-benzamide]",23%
4,"O=C1NC(C2CCCCC2)=NC12CCN(S(=O)(=O)/C=C/c1cccc3cc[nH]c13)CC2 [Compound 479, 2-cyclohexyl-8-[(E)-2-(1H-indol-7-yl)-ethenesulfonyl]-1,3,8-triaza-spiro[4.5]dec-1-en-4-one]",15%
5,"CC(=O)N(C)c1cccc(CCS(=O)(=O)N2CCC3(CC2)N=C(c2cccc(OC(F)(F)F)c2)NC3=O)c1C [Compound 264, N-methyl-N-(2-methyl-3-{2-[4-oxo-2-(3-trifluoromethoxy-phenyl)-1,3,8-triaza-spiro[4.5]dec-1-ene-8-sulfonyl]-ethyl}-phenyl)-acetamide]",69%
6,"Cc1cc(C(=O)N(C)C)cc(C)c1/C=C/S(=O)(=O)N1CCC2(CC1)N=C(c1cccc(C(F)(F)F)c1)NC2=O [Compound 383, 3,5,N,N-Tetramethyl-4-{(E)-2-[4-oxo-2-(3-trifluoromethyl-phenyl)-1,3,8-triaza-spiro[4.5]dec-1-ene-8-sulfonyl]-vinyl}-benzamide]",72%
7,"Cc1nc(CC(=O)N2CCCC(C3=NC4(CCN(S(=O)(=O)CCc5cccc6ccccc56)CC4)C(=O)N3)C2)c(C)s1 (stereo not shown) [Compound 433, 2-{1-[2-(2,5-dimethyl-thiazol-4-yl)-acetyl]-piperidin-3-yl}-8-(2-naphthalen-1-yl-ethanesulfonyl)-1,3,8-triaza-spiro[4.5]dec-1-en-4-one]",18%
8,"Cc1cc(OCCC(O)CO)ccc1CCS(=O)(=O)N1CCC2(CC1)N=C(c1cccc(C(F)(F)F)c1)NC2=O (stereo not shown) [Compound 284, 8-{2-[4-(3,4-dihydroxy-butoxy)-2-methyl-phenyl]-ethanesulfonyl}-2-(3-trifluoromethyl-phenyl)-1,3,8-triaza-spiro[4.5]dec-1-en-4-one]",82%
